Laboratory results reported in publication PMC5218480 (PLoS ONE, 2017).

Tested on: MV-4-11 cells
Assay: Gene expression microarray analysis (Affymetrix PrimeView) and GSEA
Assay type: cell-based, human
Design: RFU PODN (11730768_x_at) / Fold change /veh PODN (11730768_x_at) / RFU LINC00158 (11744669_a_at) / Fold change /veh LINC00158 (11744669_a_at) / RFU DUSP10 (11751237_a_at) / Fold change /veh DUSP10 (11751237_a_at) / RFU ID3 (11757404_x_at) / Fold change /veh ID3 (11757404_x_at) / RFU PLEKHG5 (11737974_s_at) / Fold change /veh PLEKHG5 (11737974_s_at) / RFU LRRC4B (11730491_at) / Fold change /veh LRRC4B (11730491_at) / RFU GIMAP4 (11747438_a_at) / Fold change /veh GIMAP4 (11747438_a_at) / RFU KRT8 (11758183_x_at) / Fold change /veh KRT8 (11758183_x_at) / RFU CNN1 (11734310_a_at) / Fold change /veh CNN1 (11734310_a_at) / RFU VPS37D (11726825_at) / Fold change /veh VPS37D (11726825_at) / RFU C10orf10 (11716522_x_at) / Fold change /veh C10orf10 (11716522_x_at) / RFU KIR2DL2 /// KIR2DL4 /// KIR2DL5A /// KIR2DL5B /// KIR2DS1 /// KIR2DS2 /// KIR2DS3 /// KIR2DS4 /// KIR3DL3 /// KIR3DL3 /// KIR3DS1 (11738374_at) / Fold change /veh KIR2DL2 /// KIR2DL4 /// KIR2DL5A /// KIR2DL5B /// KIR2DS1 /// KIR2DS2 /// KIR2DS3 /// KIR2DS4 /// KIR3DL3 /// KIR3DL3 /// KIR3DS1 (11738374_at) / RFU C1QL1 (11718748_at) / Fold change /veh C1QL1 (11718748_at) / RFU TMPRSS4 (11747572_a_at) / Fold change /veh TMPRSS4 (11747572_a_at) / RFU HAMP (11756126_x_at) / Fold change /veh HAMP (11756126_x_at) / RFU RNFT2 (11725882_a_at) / Fold change /veh RNFT2 (11725882_a_at) / RFU NR4A2 (11747474_a_at) / Fold change /veh NR4A2 (11747474_a_at) / RFU ABCC12 (11746883_a_at) / Fold change /veh ABCC12 (11746883_a_at) / RFU TMEM136 (11760407_x_at) / Fold change /veh TMEM136 (11760407_x_at) / RFU CLDN22 /// WWC2 (11732394_at) / Fold change /veh CLDN22 /// WWC2 (11732394_at) / RFU HLA-DPB1 (11760878_x_at) / Fold change /veh HLA-DPB1 (11760878_x_at) / RFU SPINT1 (11716480_a_at) / Fold change /veh SPINT1 (11716480_a_at) / RFU GAP43 (11754022_s_at) / Fold change /veh GAP43 (11754022_s_at) / RFU A4GNT (11735810_at) / Fold change /veh A4GNT (11735810_at) / RFU PRB3 (11715151_x_at) / Fold change /veh PRB3 (11715151_x_at) / RFU TUBB4B (11761932_at) / Fold change /veh TUBB4B (11761932_at) / RFU CAPN14 (11732068_a_at) / Fold change /veh CAPN14 (11732068_a_at) / RFU TMCC2 (11721928_a_at) / Fold change /veh TMCC2 (11721928_a_at) / RFU IRGQ (11745062_a_at) / Fold change /veh IRGQ (11745062_a_at) / RFU FAM174B (11720279_a_at) / Fold change /veh FAM174B (11720279_a_at) / RFU TMPRSS4 (11748680_a_at) / Fold change /veh TMPRSS4 (11748680_a_at) / RFU FAM212B (11763350_a_at) / Fold change /veh FAM212B (11763350_a_at) / RFU PLEKHG5 (11743358_a_at) / Fold change /veh PLEKHG5 (11743358_a_at) / RFU ZSCAN30 (11745921_a_at) / Fold change /veh ZSCAN30 (11745921_a_at) / RFU CMKLR1 (11741424_a_at) / Fold change /veh CMKLR1 (11741424_a_at) / RFU LOC101060620 /// MAPK8IP1 (11723275_at) / Fold change /veh LOC101060620 /// MAPK8IP1 (11723275_at) / RFU SPTSSB (11747773_x_at) / Fold change /veh SPTSSB (11747773_x_at) / RFU PRSS12 (11739890_at) / Fold change /veh PRSS12 (11739890_at) / RFU BIN1 (11741810_x_at) / Fold change /veh BIN1 (11741810_x_at) / RFU WNT11 (11732464_a_at) / Fold change /veh WNT11 (11732464_a_at) / RFU C10orf10 (11716521_a_at) / Fold change /veh C10orf10 (11716521_a_at) / RFU C5orf56 (11738089_at) / Fold change /veh C5orf56 (11738089_at) / RFU CYB561 (11721691_x_at) / Fold change /veh CYB561 (11721691_x_at) / RFU ANKRD19P (11752326_a_at) / Fold change /veh ANKRD19P (11752326_a_at) / RFU OR2T12 /// OR2T33 /// OR2T8 (11738714_s_at) / Fold change /veh OR2T12 /// OR2T33 /// OR2T8 (11738714_s_at) / RFU VCAN (11748164_a_at) / Fold change /veh VCAN (11748164_a_at) / RFU JSRP1 (11732532_at) / Fold change /veh JSRP1 (11732532_at) / RFU KRTAP10-11 (11738290_x_at) / Fold change /veh KRTAP10-11 (11738290_x_at) / RFU MYO3A (11730013_a_at) / Fold change /veh MYO3A (11730013_a_at) / RFU EBF3 (11725865_a_at) / Fold change /veh EBF3 (11725865_a_at) / RFU CAMK2N1 (11719241_x_at) / Fold change /veh CAMK2N1 (11719241_x_at) / RFU C5orf56 (11738088_a_at) / Fold change /veh C5orf56 (11738088_a_at) / RFU OLFML3 (11715873_a_at) / Fold change /veh OLFML3 (11715873_a_at) / RFU LOC100653217 /// NTM (11731650_a_at) / Fold change /veh LOC100653217 /// NTM (11731650_a_at) / RFU MAPK11 (11762145_a_at) / Fold change /veh MAPK11 (11762145_a_at) / RFU FIZ1 (11724087_x_at) / Fold change /veh FIZ1 (11724087_x_at) / RFU OASL (11726364_x_at) / Fold change /veh OASL (11726364_x_at) / RFU SOX15 (11748057_x_at) / Fold change /veh SOX15 (11748057_x_at) / RFU CD79A (11719716_a_at) / Fold change /veh CD79A (11719716_a_at) / RFU HIST1H1D (11736915_at) / Fold change /veh HIST1H1D (11736915_at) / RFU CASKIN2 (11723855_a_at) / Fold change /veh CASKIN2 (11723855_a_at) / RFU LOC730098 (11760151_x_at) / Fold change /veh LOC730098 (11760151_x_at) / RFU OR4N2 (11742367_at) / Fold change /veh OR4N2 (11742367_at) / RFU PRRT2 (11749266_a_at) / Fold change /veh PRRT2 (11749266_a_at) / RFU SNX32 (11753110_a_at) / Fold change /veh SNX32 (11753110_a_at) / RFU CDHR5 (11726645_a_at) / Fold change /veh CDHR5 (11726645_a_at) / RFU RCAN1 (11760418_a_at) / Fold change /veh RCAN1 (11760418_a_at) / RFU FAM167A (11723789_a_at) / Fold change /veh FAM167A (11723789_a_at) / RFU FAM26E (11764081_at) / Fold change /veh FAM26E (11764081_at) / RFU ISYNA1 (11749810_s_at) / Fold change /veh ISYNA1 (11749810_s_at) / RFU ACY1 (11761880_at) / Fold change /veh ACY1 (11761880_at) / RFU 11764098_at / Fold change /veh 11764098_at / RFU SAMD14 (11745864_x_at) / Fold change /veh SAMD14 (11745864_x_at) / RFU NPB (11741838_a_at) / Fold change /veh NPB (11741838_a_at) / RFU TMPRSS6 (11731388_a_at) / Fold change /veh TMPRSS6 (11731388_a_at) / RFU KRTAP10-2 (11738614_at) / Fold change /veh KRTAP10-2 (11738614_at) / RFU ARHGAP8 /// PRR5-ARHGAP8 (11727945_x_at) / Fold change /veh ARHGAP8 /// PRR5-ARHGAP8 (11727945_x_at) / RFU KRTAP5-7 /// NADSYN1 (11734609_at) / Fold change /veh KRTAP5-7 /// NADSYN1 (11734609_at) / RFU RASL12 (11751679_a_at) / Fold change /veh RASL12 (11751679_a_at) / RFU CDKN2B (11736163_a_at) / Fold change /veh CDKN2B (11736163_a_at) / RFU PRF1 (11729649_at) / Fold change /veh PRF1 (11729649_at) / RFU, ZNF638 /// ZNF638-IT1 / Fold change vs veh, ZNF638 /// ZNF638-IT1 / RFU, PANK3 / Fold change vs veh, PANK3 / RFU, SH3YL1 / Fold change vs veh, SH3YL1 / RFU, ZEB2 / Fold change vs veh, ZEB2 / RFU, NRIP1 / Fold change vs veh, NRIP1 / RFU, PTTG1IP / Fold change vs veh, PTTG1IP / RFU, CAPN2 / Fold change vs veh, CAPN2 / RFU, MED14 / Fold change vs veh, MED14 / RFU, SNORA58 / Fold change vs veh, SNORA58 / RFU, C1orf63 / Fold change vs veh, C1orf63 / RFU, LRRFIP1 / Fold change vs veh, LRRFIP1 / RFU, NDUFAF7 / Fold change vs veh, NDUFAF7 / RFU, SLC12A2 / Fold change vs veh, SLC12A2 / RFU, IBTK / Fold change vs veh, IBTK / RFU, ESF1 / Fold change vs veh, ESF1 / Fold change vs veh, TMEM50B / RFU, TAOK1 / Fold change vs veh, TAOK1 / RFU, ACBD3 / Fold change vs veh, ACBD3 / RFU, TMA16 / Fold change vs veh, TMA16 / RFU, RWDD3 / Fold change vs veh, RWDD3 / RFU, BCAT1 / Fold change vs veh, BCAT1 / RFU, EDEM3 / Fold change vs veh, EDEM3 / RFU, TMEM33 / Fold change vs veh, TMEM33 / RFU, WDR75 / Fold change vs veh, WDR75 / RFU, AHCTF1 / Fold change vs veh, AHCTF1 / RFU, TFRC / Fold change vs veh, TFRC / RFU, ZDHHC17 / Fold change vs veh, ZDHHC17 / RFU, NOM1 / Fold change vs veh, NOM1 / RFU, ARL8B / Fold change vs veh, ARL8B / RFU, ZBTB11 / Fold change vs veh, ZBTB11 / RFU, TAMM41 / Fold change vs veh, TAMM41 / RFU, KIAA1704 /// LOC100996395 / Fold change vs veh, KIAA1704 /// LOC100996395 / RFU, ING1 / Fold change vs veh, ING1 / RFU, TRMT61B / Fold change vs veh, TRMT61B / RFU, FUBP3 / Fold change vs veh, FUBP3 / RFU, TP53 / Fold change vs veh, TP53 / RFU, TNKS2 / Fold change vs veh, TNKS2 / RFU, ZFP14 / Fold change vs veh, ZFP14 / RFU, ACTR2 / Fold change vs veh, ACTR2 / RFU, PPP3R1 / Fold change vs veh, PPP3R1 / RFU, PIK3R1 / Fold change vs veh, PIK3R1 / RFU, HNRNPA1 / Fold change vs veh, HNRNPA1 / RFU, RNF170 / Fold change vs veh, RNF170 / RFU, ZNF28 / Fold change vs veh, ZNF28 / RFU, RNGTT / Fold change vs veh, RNGTT / RFU, OGT / Fold change vs veh, OGT / RFU, BRD1 / Fold change vs veh, BRD1 / RFU, MARS / Fold change vs veh, MARS / RFU, ZNF655 / Fold change vs veh, ZNF655 / RFU, FAHD1 / Fold change vs veh, FAHD1 / RFU, BDP1 / Fold change vs veh, BDP1 / RFU, LRRCC1 / Fold change vs veh, LRRCC1 / RFU, ARID1A / Fold change vs veh, ARID1A / RFU, ZNF146 / Fold change vs veh, ZNF146 / RFU, ZNF330 / Fold change vs veh, ZNF330 / RFU, GPN3 / Fold change vs veh, GPN3 / RFU, C9orf123 / Fold change vs veh, C9orf123 / RFU, N4BP2L2 / Fold change vs veh, N4BP2L2 / RFU, ARFIP1 / Fold change vs veh, ARFIP1 / RFU, FAM179B / Fold change vs veh, FAM179B / RFU, BCL10 / Fold change vs veh, BCL10 / RFU, UHRF1BP1L / Fold change vs veh, UHRF1BP1L / RFU, BET1 / Fold change vs veh, BET1 / RFU, CNOT2 / Fold change vs veh, CNOT2 / RFU, ZNF268 / Fold change vs veh, ZNF268 / Fold change vs veh, ZNF507 / RFU, DGCR2 / Fold change vs veh, DGCR2 / RFU, WDSUB1 / Fold change vs veh, WDSUB1 / Fold change vs veh, HSP90B1 /// MIR3652 / RFU, ADSS / Fold change vs veh, ADSS / RFU, GK / Fold change vs veh, GK / RFU, ZNF148 / Fold change vs veh, ZNF148 / RFU, TAF9 / Fold change vs veh, TAF9 / RFU, SLC1A5 / Fold change vs veh, SLC1A5 / RFU, SLMO2 / Fold change vs veh, SLMO2 / RFU, ABCC4 / Fold change vs veh, ABCC4 / RFU, LOC101060439 /// RAP1B / Fold change vs veh, LOC101060439 /// RAP1B / RFU, RFX7 / Fold change vs veh, RFX7 / RFU, GTPBP10 / Fold change vs veh, GTPBP10 / RFU, CNEP1R1 / Fold change vs veh, CNEP1R1 / RFU, BIVM-ERCC5 /// ERCC5 / Fold change vs veh, BIVM-ERCC5 /// ERCC5 / RFU, ILF3 / Fold change vs veh, ILF3 / RFU 11762660_at / Fold change /veh 11762660_at / RFU VCAN (11757783_s_at) / Fold change /veh VCAN (11757783_s_at) / RFU DDX43 (11728927_at) / Fold change /veh DDX43 (11728927_at) / RFU KRT8 (11758188_x_at) / Fold change /veh KRT8 (11758188_x_at) / RFU NKD1 (11759106_at) / Fold change /veh NKD1 (11759106_at) / RFU SRD5A1 (11742802_a_at) / Fold change /veh SRD5A1 (11742802_a_at) / RFU TPSAB1 /// TPSB2 (11721975_s_at) / Fold change /veh TPSAB1 /// TPSB2 (11721975_s_at) / RFU GSTM3 (11746129_a_at) / Fold change /veh GSTM3 (11746129_a_at) / RFU IL23R (11737362_x_at) / Fold change /veh IL23R (11737362_x_at) / RFU TMEM51 (11727254_a_at) / Fold change /veh TMEM51 (11727254_a_at) / RFU PIWIL2 (11732686_x_at) / Fold change /veh PIWIL2 (11732686_x_at) / RFU ORM1 (11744905_x_at) / Fold change /veh ORM1 (11744905_x_at) / RFU CCDC152 (11743942_at) / Fold change /veh CCDC152 (11743942_at) / RFU ECM1 (11717891_a_at) / Fold change /veh ECM1 (11717891_a_at) / RFU IL23R (11748794_a_at) / Fold change /veh IL23R (11748794_a_at) / RFU TNFAIP8L3 (11732012_x_at) / Fold change /veh TNFAIP8L3 (11732012_x_at) / RFU MBOAT4 (11741988_at) / Fold change /veh MBOAT4 (11741988_at) / RFU 11764193_at / Fold change /veh 11764193_at / RFU TMEM53 (11763286_at) / Fold change /veh TMEM53 (11763286_at) / RFU MAGEB2 (11727129_at) / Fold change /veh MAGEB2 (11727129_at) / RFU TMEM200A (11744735_a_at) / Fold change /veh TMEM200A (11744735_a_at) / RFU CCDC152 (11751479_a_at) / Fold change /veh CCDC152 (11751479_a_at) / RFU FAM211A (11726209_a_at) / Fold change /veh FAM211A (11726209_a_at) / RFU RGS16 (11746705_a_at) / Fold change /veh RGS16 (11746705_a_at) / RFU VCAN (11755009_s_at) / Fold change /veh VCAN (11755009_s_at) / RFU RHOB (11743442_s_at) / Fold change /veh RHOB (11743442_s_at) / RFU RGS16 (11720943_a_at) / Fold change /veh RGS16 (11720943_a_at) / RFU RGS16 (11720944_at) / Fold change /veh RGS16 (11720944_at) / RFU, VPS4B / Fold change vs veh, VPS4B / RFU, CREB1 / Fold change vs veh, CREB1 / RFU, DNAJC13 / Fold change vs veh, DNAJC13 / RFU, GNAQ / Fold change vs veh, GNAQ / RFU, CDK5R1 / Fold change vs veh, CDK5R1 / RFU, ZRANB3 / Fold change vs veh, ZRANB3 / RFU, CUL4A / Fold change vs veh, CUL4A / RFU, CCNY / Fold change vs veh, CCNY / RFU, UFL1 / Fold change vs veh, UFL1 / RFU, COG3 / Fold change vs veh, COG3 / RFU, DIAPH2 / Fold change vs veh, DIAPH2 / RFU, SKA2 / Fold change vs veh, SKA2 / RFU, AFF3 / Fold change vs veh, AFF3 / RFU, LMF1 / Fold change vs veh, LMF1 / RFU, IPO11 / Fold change vs veh, IPO11 / RFU, DFFB / Fold change vs veh, DFFB / RFU, FOXP1 / Fold change vs veh, FOXP1 / RFU, CARD8 / Fold change vs veh, CARD8 / RFU, STRN3 / Fold change vs veh, STRN3 / RFU, ADK / Fold change vs veh, ADK / RFU, RASSF2 / Fold change vs veh, RASSF2 / RFU, WIPF1 / Fold change vs veh, WIPF1 / RFU, LARP1B / Fold change vs veh, LARP1B / RFU, RASA1 / Fold change vs veh, RASA1 / RFU, RB1 / Fold change vs veh, RB1 / RFU, PPFIA1 / Fold change vs veh, PPFIA1 / RFU, MAT2A / Fold change vs veh, MAT2A / RFU, CCT5 / Fold change vs veh, CCT5 / RFU, WDR92 / Fold change vs veh, WDR92 / RFU, CUX1 / Fold change vs veh, CUX1 / RFU, TTC7A / Fold change vs veh, TTC7A / RFU, TMEM135 / Fold change vs veh, TMEM135 / RFU, DEPTOR / Fold change vs veh, DEPTOR / RFU, CPM / Fold change vs veh, CPM / RFU, DNAJB6 / Fold change vs veh, DNAJB6 / RFU, CACNA2D3 / Fold change vs veh, CACNA2D3 / RFU, DTX4 / Fold change vs veh, DTX4 / RFU, TFCP2 / Fold change vs veh, TFCP2 / RFU, GMCL1 /// GMCL1P1 / Fold change vs veh, GMCL1 /// GMCL1P1 / RFU, AEBP2 / Fold change vs veh, AEBP2 / RFU, SNHG1 /// SNORD22 /// SNORD25 /// SNORD26 /// SNORD27 /// SNORD28 /// SNORD29 /// SNORD31 / Fold change vs veh, SNHG1 /// SNORD22 /// SNORD25 /// SNORD26 /// SNORD27 /// SNORD28 /// SNORD29 /// SNORD31 / Fold change (Aza/veh), C12orf56 (ProbeSet 11735607_a_at) / Fold change (ACY-1035/veh), C12orf56 (ProbeSet 11735607_a_at) / Fold change (Aza/veh), FGFR1OP (ProbeSet 11751329_s_at) / Fold change (ACY-1035/veh), FGFR1OP (ProbeSet 11751329_s_at) / Fold change (Aza/veh), VPS36 (ProbeSet 11739960_a_at) / Fold change (ACY-1035/veh), VPS36 (ProbeSet 11739960_a_at) / RFU SYPL1 (11715823_x_at) / Fold change /veh SYPL1 (11715823_x_at) / RFU IGFBP7 (11715501_s_at) / Fold change /veh IGFBP7 (11715501_s_at) / RFU REEP3 (11722064_at) / Fold change /veh REEP3 (11722064_at) / RFU IGLL1 (11728026_x_at) / Fold change /veh IGLL1 (11728026_x_at): dose or concentration left out as unconfirmed
Details: ProbeSet 11762504_a_at; LIST D

SMILES: Nc1ncn([C@@H]2O[C@H](CO)[C@@H](O)[C@H]2O)c(=O)n1 [azacitidine]
- RFU, ZRANB3: 79.10 RFU
